According to a melting point compilation (Tetko et al.; mined from patent text by program, amines drawn as free bases though some values may be those of a salt):

`O=C(N[C@H](Cc1ccc(C(F)(F)F)cc1)[C@@H](O)c1ccc(F)cc1)c1ccc(F)c2ccccc12` (racemic) showed a melting point of 210 to 211 °C. `COc1ccc2sc3nc(CO)cn3c2c1` gave a melting point of 189 to 190 °C. Work on `O=C1CC(=O)CC2(CCOCC2)C1` yielded a melting point of 162 to 164 °C. With `O=C(C(=O)c1cccc(Br)c1)c1ccccc1` the melting point was 78 to 82 °C. Work on `CNC(=O)Nc1snc(S(C)=O)c1C(N)=O` (stereo not drawn) yielded a melting point of over 355 °C. `O=C(Nc1ccc(-c2ccccc2)s1)C1CCCCC1` showed a melting point of 174 °C. Molecule `COC(=O)/C=C/c1ccc(/C=C/c2ccncc2)nc1` has a melting point of over 143 °C. For `NC(=O)c1cc(-c2ccnc(Nc3cccc(Cl)c3)n2)ccn1`, the melting point was 245 to 247 °C. `Clc1ccc2nc(-c3cccnc3)[nH]c2c1` gave a melting point of 244 to 246 °C. `COC(=O)CC(C#N)Cc1ccc(Cl)cc1Cl` (stereo not drawn) gave a melting point of 86 to 88 °C. `CCOC(=O)C1=C(C)NC(C)=C(C(=O)OCC)C1c1ccccc1Br` showed a melting point of 144 to 145 °C. `COc1ccc(C(C#Cc2ccccc2)CN(C)C(=O)C(=O)O)cc1OC1CCCC1` (racemic) gave a melting point of 157 to 159 °C. For `c1cc2c(cc1CSc1nnc(-c3ccc4c(c3)CCO4)o1)CCO2`, the melting point was 130 to 132 °C. Molecule `CCn1c(=O)ccc2cnc(Nc3ccc(O)cc3)nc21` has a melting point of 222 to 224 °C. Work on `CC1(C)OC(=O)C(C(=O)Cc2cc(F)c(F)cc2F)C(=O)O1` yielded a melting point of 102 to 104 °C. `Cc1csc2nc(COc3ccccc3)cn12` showed a melting point of 190 to 192 °C. With `N#Cc1c(Br)c(-c2ccc(Cl)cc2)n(C(=O)c2ccccc2)c1Cl` the melting point was 179 to 181 °C. `COC(=O)Cc1nc(-c2cc(C(C)(C)C)c(O)c(C(C)(C)C)c2)oc1C` showed a melting point of 121 to 123 °C. With `O=C(O)c1cn(C2CC2)c2nc(N3CCNCC3)c(F)cc2c1=O` the melting point was 274 to 276 °C. In the case of `Cc1ccc(C(=O)NCC(O)CO)cc1-n1c(C)cc(OCc2ccccc2CNC(=O)Nc2cc(C(C)(C)C)nn2-c2ccc(O)c(Cl)c2)c(Cl)c1=O` (stereo not drawn), the melting point is reported as 173 to 175 °C. For `O=C1C[C@@H]2CCCC[C@@H]2N1O` (relative stereo), the melting point was 85 to 86 °C. Molecule `C=CC1(C(=O)c2ccc(Cl)cc2)C=CC=CC1Cl` (stereo not drawn) has a melting point of 120 to 122 °C. `CCn1nc(C(F)(F)F)c(C)c1O` showed a melting point of 150 to 152 °C. `O=C(Nc1ccc2c(c1)CCC2)OCc1ccccc1` gave a melting point of 56 to 59 °C. Molecule `CCOC(=O)c1ccc(NCCCc2c(N(C(C)=O)C(C)=O)nc(NC(C)=O)[nH]c2=O)cc1` has a melting point of 197 to 198 °C. Work on `N#CC(C#N)=C(NCCN1CCCCC1)N1CCC(CN2CCCCC2)CC1` yielded a melting point of 78 to 80 °C. In the case of `CC1CN(c2ccc(Nc3cc(Br)cn(C)c3=O)nc2)C1`, the melting point is reported as 135 to 136 °C. In the case of `O=C1NC(=O)C(Cc2ccccc2)S1` (stereo not drawn), the melting point is reported as 83 to 86 °C. `C=CCN(CC=C)c1nc(NC(=O)CC)n2oc(=O)nc2n1` showed a melting point of 157 to 159 °C. With `O=C(NCCO)c1cccc(-c2cc3c(ccn3Cc3ccc(Cl)cc3Cl)cn2)c1` the melting point was 198 to 199 °C. `CN(C)C=CC(=O)c1ccc(I)cc1` showed a melting point of 117 to 118 °C. `CSc1ccc(C=CC(=O)c2cccc([N+](=O)[O-])c2)cc1` gave a melting point of 150 °C. For `Cc1cccc(NC(=O)CC23CC4CC(CC(C4)C2)C3)c1C`, the melting point was 170 °C. Molecule `COc1ccccc1Oc1c(N)nc(-c2ncccn2)nc1OCCOc1ncc(Br)cn1` has a melting point of 124 to 128 °C. In the case of `CC(C)N1CCC(=C2c3ccn(C)c3CCn3ccnc32)CC1`, the melting point is reported as 178 °C. `CC(C)C(=O)O[C@@H](OC(=O)ON1C(=O)[C@H](OC(=O)c2ccccc2)[C@@H](OC(=O)c2ccccc2)C1=O)C(C)C` gave a melting point of 138 to 140 °C. With `CC(=O)CCNc1ccc(-c2cc(-c3ccc(C(=O)O)cc3)ccc2OCCCCO)cc1C(C)(C)C` the melting point was 75 °C. Molecule `Cc1cc(OCc2ccc(-c3ccc(C(F)(F)F)cc3)nc2)ccc1OC(C)(C)C(=O)O` has a melting point of 149 to 151 °C. Molecule `CN1C(=S)N(c2ccc(C#N)c(C(F)(F)F)c2)C(=O)C12CCCC2` has a melting point of 162 to 163 °C. `COc1ccc(C(O)C(C)N)cc1OC` (stereo not drawn) gave a melting point of 131 to 132 °C. With `N#Cc1ccc(Cn2c3cc(O)c(O)cc3c3ccc(O)c(O)c32)cc1` the melting point was 225 to 227 °C. Molecule `O=C(O)c1cccc2c1oc1ccccc12` has a melting point of 164 to 165 °C. Molecule `Cc1cc(C)cc(Nc2ncc(-c3ccccc3)s2)c1` has a melting point of 175 to 176 °C. `CC(=O)C(C)Nc1c(C)cc(C)c2nsnc12` (stereo not drawn) gave a melting point of 209 to 211 °C. In the case of `CCCCCCCCCCCC1=NCCN1CCCCO`, the melting point is reported as 58 to 60 °C. With `Fc1cc(CC2(Cc3ccncc3)c3ccccc3Oc3ncccc32)ccn1` (stereo not drawn) the melting point was 206 to 208 °C. For `CN1CCC(CNC(=O)c2ccc(-c3[nH]nc4c3C(=O)c3c(NC(=O)NN5CCOCC5)cccc3-4)s2)C1` (stereo not drawn), the melting point was 151 to 153 °C. Molecule `Cc1ccc(-n2c(-c3cccc4ccccc34)ccc2-c2cccc3ccccc23)cc1` has a melting point of 105 to 106 °C. `C=C(C)C(=O)OCCNC(=O)Oc1cccc(OC(=O)c2ccccc2)c1` showed a melting point of 57.5 to 61.5 °C. `O=C(O)CCc1cnoc1-c1ccc(F)c(Cl)c1` showed a melting point of 118 to 119 °C. `N#Cc1cnc2cc3c(cc2c1Nc1ccc(Oc2ccccc2)cc1)ncn3CCN1CCOCC1` showed a melting point of over 260 °C. Work on `ICCOc1ccc(C2=C(c3ccccc3)CCCc3ccccc32)cc1` yielded a melting point of 154 to 156 °C. In the case of `CCOC(=O)C1=C(C)NC(C)=C(C(=O)OCC)C1c1ccccc1C=CC(=O)O`, the melting point is reported as 175 to 178 °C. `COc1ccc(-c2cc3c(C#N)c(OC)ccc3o2)cc1` showed a melting point of 120 to 122 °C. For `COc1ccc(C(=O)C=Cc2ccc([N+](=O)[O-])cc2)cc1`, the melting point was 171 to 173 °C. Molecule `C=CCN(C(=O)c1ccco1)c1c(C)cccc1C` has a melting point of 68 to 69 °C. Molecule `Cc1ccc2c(c1)C(NC(=O)CCCCl)c1ccccc1CS2(=O)=O` (stereo not drawn) has a melting point of 203 to 204 °C. `O=C(c1ccc(F)cc1)C1CCN(CCCn2c(=O)[nH]c3cc(Cl)ccc32)CC1` showed a melting point of 164 °C. For `CCOC(=O)CC1CCc2ccc(COc3ccc(C#N)cc3)cc2C1` (stereo not drawn), the melting point was 51 to 52 °C. `CN(C)C(CC(F)C(=O)c1ccccc1)N1CCC(O)(c2ccc(Cl)cc2)CC1` (stereo not drawn) gave a melting point of 160 to 163 °C. In the case of `N#Cc1cccc(Br)c1N`, the melting point is reported as 119 to 120 °C. For `C[C@@H](S[C@H]1CC[C@H](/C=C/C=C/c2ccc(C(F)(F)F)cc2)CC1)[C@](O)(Cn1cncn1)c1ccc(F)cc1F`, the melting point was 74 to 76 °C. For `CCOC(=O)C1CSC(COc2ccccc2OC)N1` (stereo not drawn), the melting point was 50 °C. For `CCOCc1nc2c(N)nc3cc(-c4ccc(-c5ccc6c(c5)nc(N)c5nc(COCC)n(CC(C)(C)O)c56)cc4)ccc3c2n1CC(C)(C)O`, the melting point was 325 to 328 °C. Molecule `O=C(OCc1ccccc1)N1CCC(c2cc3ccccc3c(=O)[nH]2)CC1` has a melting point of 179 to 181 °C. For `COc1cc2c(c(N)c1OC)C(=O)C(=Cc1cc(C)c(O)c(C)c1)C2`, the melting point was 238 to 240 °C. Work on `O=C(NC1=NCCCC1)Nc1ccccc1` yielded a melting point of 153 to 154 °C. Work on `CCN1c2ncc(COc3cccc4[nH]ccc34)cc2C(=O)N(C)c2ccc(Cl)nc21` yielded a melting point of 183 to 185 °C. `COc1ccc(-c2nc(C)nn2-c2ccc(S(N)(=O)=O)cn2)cc1` gave a melting point of 191 to 192 °C. For `Cc1nc(Nc2ccc(F)c(Cl)c2)c2nc(N3CCC(N)CC3)ncc2n1`, the melting point was 156 to 163 °C. Molecule `O=c1ccn(CCO)c(C(O)c2ccc(F)cc2)c1O` (stereo not drawn) has a melting point of 187 to 188 °C. `CN(CCOc1ccc(C=CC(=O)N2CCc3c([nH]c4ccccc34)C2c2ccc3c(c2)CCO3)cc1)C(=O)OC(C)(C)C` (stereo not drawn) showed a melting point of 110 °C. Work on `COC(=O)C1(N2CCCCC2)CCN(Cc2ccccc2)CC1` yielded a melting point of 84.7 °C. `Nc1nc(=O)n(C2OC(CO)C(O)C2F)cc1Br` (stereo not drawn) gave a melting point of 201 to 202 °C. `C#CC1(O)CCC2C3CCC4=CCCCC4C3C(=CF)CC21C` (stereo not drawn) showed a melting point of 103 to 104 °C. Work on `COc1c(OCc2ccc(-c3ccccc3S(=O)(=O)Nc3onc(C)c3C)c(COCCF)c2)cc(C)nc1C` yielded a melting point of 90 to 95 °C. Work on `O=C(O)[C@H]1O[C@H](c2ccccc2Cl)c2cc(Cl)ccc2N(Cc2ccccc2)C1=O` (relative stereo) yielded a melting point of 177 °C. With `CC(C)(C)c1cc(CCc2ccccc2NC(=O)NCC(C)(C)c2cccc(F)c2)cc(C(C)(C)C)c1O` the melting point was 165 to 166 °C. `CCCC12C=CC=CC1C(=O)N(c1nc(C#N)c(C#N)[nH]1)C2=O` (stereo not drawn) showed a melting point of 134 to 135 °C. `CC(SC1COC(c2ccc(C(=O)Nc3ccc(C#N)cc3)cc2)OC1)C(O)(Cn1cncn1)c1ccc(F)cc1F` (stereo not drawn) gave a melting point of 176 °C. For `COc1cc(CO)c([N+](=O)[O-])cc1OCCCC(=O)O`, the melting point was 172 to 175 °C. In the case of `COC(=O)CCCCC1C(C(=O)OC)=C(C)NC(C)=C1C(=O)OC`, the melting point is reported as 80 to 81 °C. For `COc1ccc(C(=O)c2ccccc2C(F)(F)F)c(O)c1Cl`, the melting point was 101 to 102 °C. `C#CCC1(O)CCCCC1` showed a melting point of 53 to 54 °C. Molecule `Cc1ccc(NC2CCOC2=O)c(C(=O)O)c1` (stereo not drawn) has a melting point of 199 to 200 °C. Molecule `BrCc1nc(-c2ccccc2)nc2ccccc12` has a melting point of 110 °C. With `CCC(=O)NCc1cccc(-c2nc(=O)c3ccccc3s2)n1` the melting point was 199 to 200 °C. For `S=C=Nc1ccc2sc(-c3cccs3)nc2c1`, the melting point was 147 to 149 °C. Molecule `CCCCCCC(=O)c1ccc(OCCN2CCN(c3cc(Cl)nnc3Cl)CC2)cc1` has a melting point of 113 to 115 °C. With `CS(=O)(=O)CC(=O)N[C@H]1CC[C@H](CCN2CCN(c3nccc4ccoc34)CC2)CC1` the melting point was 182 °C. In the case of `COc1ccccc1N1CCN(CC2(C)N=C(c3cccnc3)NC2=O)CC1` (stereo not drawn), the melting point is reported as 159 to 162 °C. `CN(C)CC(C)(C)Oc1ccc(Nc2cc(-c3cccc(-n4ncc5cc(C(C)(C)C)cc(F)c5c4=O)c3CO)nn(C)c2=O)nc1` gave a melting point of 136 to 144 °C. `Cc1cc(O)ccc1-n1cc(C(=O)O)c(=O)cc1C1CCC(N(C)C)CC1` (stereo not drawn) showed a melting point of 207 to 215 °C. `CCOc1ccc2c(c1)C(C)(c1cc(NC(=O)CN(C)C)ccc1Cl)C(=O)N2S(=O)(=O)c1ccc(C(=O)NC(C)(C)C)cc1OC` (stereo not drawn) showed a melting point of 150 °C. `CCCCCCCCOc1cc2c(cc1/C(C)=C/c1ccc(C(=O)OC)cc1)C(C)(C)CCCS2(=O)=O` gave a melting point of 79 to 80 °C. `CCN(CC)C(=O)c1c(C(=O)NN=Cc2ccc(Cl)cc2)[nH]c2ccccc12` showed a melting point of 255 to 257 °C. For `NC(=NO)c1ncn2c1[C@@H]1CCN1C(=O)c1cc(F)ccc1-2`, the melting point was 248 to 250 °C. Molecule `CC(C)CC(NC(=O)N1CCCCCC1)C(=O)NC(Cc1ccc(C#Cc2ccccc2)cc1)C(=O)NC(C)(C)C` (stereo not drawn) has a melting point of 115 to 117 °C.
